# Data as given in PMC6426458 (Science Advances, 2019).
# pIC50: −log10 of the molar value.
# Legend:
# [1] = target: T1, RelMtb (truncated, residues 53 to 446) (Mycobacterium tuberculosis, UniProt P9WHG9); test: RelMtb enzymatic fluorescence polarization; assay type: biochemical
# T1 sequence (P9WHG9 1-394): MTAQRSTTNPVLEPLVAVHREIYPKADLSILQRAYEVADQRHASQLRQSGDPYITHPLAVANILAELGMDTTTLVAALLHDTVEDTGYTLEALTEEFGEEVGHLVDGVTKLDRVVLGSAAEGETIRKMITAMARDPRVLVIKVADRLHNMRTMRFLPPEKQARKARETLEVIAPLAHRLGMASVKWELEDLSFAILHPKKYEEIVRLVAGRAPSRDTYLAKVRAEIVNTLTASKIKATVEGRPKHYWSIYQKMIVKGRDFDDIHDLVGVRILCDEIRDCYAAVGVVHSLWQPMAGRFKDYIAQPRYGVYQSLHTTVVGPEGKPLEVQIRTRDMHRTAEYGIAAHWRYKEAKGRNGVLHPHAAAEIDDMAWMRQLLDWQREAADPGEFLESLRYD
# [2] = test system: Mtb following exposure to NS; conditions: cited from earlier work
# [3] = test system: rel Comp (relMtb-complemented strain); assay type: cell-based, Mycobacterium tuberculosis
# Δrel = test system: Δrel; design: species or system Mycobacterium tuberculosis; conditions: in vivo
# WT Mtb H37Rv = assay type: cell-based, Mycobacterium tuberculosis
# relMtb-deficient Mtb = conditions: nutrient-rich broth; cited from earlier work
# WT H37Rv = test system: WT H37Rv; design: species or system Mycobacterium tuberculosis; conditions: in vivo
# [4] = test system: nutrient-starved empty vector control (CDC1551); assay type: cell-based, Mycobacterium tuberculosis; conditions: INH 15.36 μg/ml, 7 days of exposure
# rel Comp = test system: rel Comp; design: species or system Mycobacterium tuberculosis; conditions: in vivo
# [5] = test system: Δrel (H37Rv deficient in Rv2583c/relMtb); assay type: cell-based, Mycobacterium tuberculosis; conditions: nutrient-rich broth
structure (smiles),measurement,setting,value
Nc1nc2c(ncn2[C@@H]2O[C@H](COP(=O)(O)OP(=O)(O)OP(=O)(O)O)C[C@H]2O)c(=O)[nH]1 [3′-dGTP],pIC50,[1],2.40
"Nc1ncnc2c1ncn2[C@@H]1O[C@H](COP(=O)(O)CP(=O)(O)OP(=O)(O)O)[C@@H](O)[C@H]1O [AMPCPP, α,β-methylene analogue of ATP]",pIC50,[1],2.21
Nc1nc2c(ncn2[C@@H]2O[C@H](COP(=O)(O)OP(=O)(O)OP(=O)(O)OP(=O)(O)OC[C@H]3O[C@@H](n4cnc5c(N)ncnc54)[C@H](O)[C@@H]3O)[C@@H](O)[C@H]2O)c(=O)[nH]1 [AP4G],pIC50,[1],2.74
"NNC(=O)c1ccncc1 [INH, isoniazid]",fold increase in the MBC of INH,[2],> 100 fold
same,fold increase of MBC of INH,[3]; 7 days of NS versus nutrient-rich broth,512 fold
same,fold decrease of MBC of INH,"[3]; 7 days of NS, in the presence of 4 μM X9",16 fold
same,MBC of INH (concentration required to kill 99%),[3]; nutrient-rich broth,0.06 µg/mL
same,bacilli killed in the lungs during 2 weeks of treatment,Δrel,2.03 log10
same,MBC of INH (concentration required to kill 99%),WT Mtb H37Rv,0.06 µg/mL
same,fold decrease of MBC of INH,WT Mtb H37Rv,16 fold
same,fold increase of MBC of INH,WT Mtb H37Rv,512 fold
same,MIC against relMtb-deficient Mtb compared with the WT strain,relMtb-deficient Mtb,the same as that against the WT strain
same,reduction of lung bacillary burden relative to the start of treatment,WT H37Rv,0.11 log10
same,mean reduction of bacterial density (CFU/ml),[4],1.43 log10 CFU
same,reduction of lung bacterial load,rel Comp,0.48 log10
same,MBC of INH (concentration required to kill 99%),[5],0.06 µg/mL
CO[C@H]1/C=C/O[C@@]2(C)Oc3c(C)c(O)c4c(O)c(c(/C=N/N5CCN(C)CC5)c(O)c4c3C2=O)NC(=O)/C(C)=C\C=C\[C@H](C)[C@H](O)[C@@H](C)[C@@H](O)[C@@H](C)[C@H](OC(C)=O)[C@@H]1C [rifampin],MIC against relMtb-deficient Mtb compared with the WT strain,relMtb-deficient Mtb,the same as that against the WT strain
